Structures can show the parent of a compound that is named as a salt. Where two headings read alike, the source gives them in different places.
Experiments:
[1] = not given; remark: listed apart in the source

For `COc1ccc2c(c1)[C@]13CCCC[C@@H]1[C@H](C2)N(C)CC3` [AD, dextromethorphan hydrobromide monohydrate], the ASSAY (25° C./60% RH, 4 wks) was 102.5, the “TOTAL RS” value (25° C./60% RH, 4 wks) was 0.25 and the ASSAY (25° C./60% RH, 8 wks) was 100.2. For the same compound, the “TOTAL RS” value (25° C./60% RH, 8 wks) was 0.20, the ASSAY (40° C./75% RH, 4 wks) was 101.5 and the “TOTAL RS” value (40° C./75% RH, 4 wks) was 0.18. The ASSAY (40° C./75% RH, 8 wks) was 100.1, the “TOTAL RS” value (40° C./75% RH, 8 wks) was 0.72 and the ASSAY (T = 0 (initial)) was 101.4. For the same compound, the “TOTAL RS” value (T = 0 (initial)) was 0.21.

With `CC(NC(C)(C)C)C(=O)c1cccc(Cl)c1` (stereo not shown) [AB, bupropion hydrochloride] the “stability / compatibility of bupropion hydrochloride (in words)” value ([1]; 8 weeks) was “stable for the entire 8 weeks”, the ASSAY ([1]; 25° C./60% RH, 4 wks) was 97.6 and the “TOTAL RS > LOQ” value ([1]; 25° C./60% RH, 4 wks) was “<LOQ”. The ASSAY ([1]; 25° C./60% RH, 8 wks) was 100.2, the “TOTAL RS > LOQ” value ([1]; 25° C./60% RH, 8 wks) was 0.13 and the ASSAY ([1]; 40° C./75% RH, 2 wks) was 100.4. The “TOTAL RS > LOQ” value ([1]; 40° C./75% RH, 2 wks) was 0.43, the ASSAY ([1]; 40° C./75% RH, 4 wks) was 99.3 and the “TOTAL RS > LOQ” value ([1]; 40° C./75% RH, 4 wks) was 0.94. The ASSAY ([1]; 40° C./75% RH, 8 wks) was 101.3, the “TOTAL RS > LOQ” value ([1]; 40° C./75% RH, 8 wks) was 1.16 and the ASSAY ([1]; 50° C./ambient, 2 wks) was 100.6. For the same compound, the “TOTAL RS > LOQ” value ([1]; 50° C./ambient, 2 wks) was 0.14, the ASSAY ([1]; T = 0 (initial)) was 100.4 and the “TOTAL RS > LOQ” value ([1]; T = 0 (initial)) was “<LOQ”.
